Measurements as given in PMC10221946, “Screening of Tyrosinase, Xanthine Oxidase, and α-Glucosidase Inhibitors from Polygoni Cuspidati Rhizoma et Radix by Ultrafiltration and HPLC Analysis” (Molecules, 2023).

What was measured:
XOD [1] = molecular target: T1, XOD (Bos taurus, UniProt P80457); assay: UF-HPLC screening, binding degree with XOD; conditions: PCR extraction 5 mg/mL, 4 U/mL XOD, 37 °C 60 min, active vs inactive enzyme peak area
T1 construct: purchased Sigma-Aldrich (Shanghai, China)
Procedure: (§1) The UF experiment was performed according to the method described in the literature, with slight modifications. In the experimental group, 200 µL of the PCR extraction (5 mg/mL) was mixed with 200 µL of 3 enzyme solutions (200 U/mL of TYR, 4 U/mL of XOD, and 6 U/mL of α-GLU, respectively). The mixtures were incubated at 37 °C for 60 min, and then 200 μL of each of them was transferred to a 3 KDa molecular weight cut-off ultrafiltration centrifuge tube to separate the unbound compounds from the enzyme–ligand complexes by centrifugation (9400× g, 30 min). Finally, the ultrafiltration filter was washed three times with 5% methanol–PBS under centrifugal conditions (9400× g, 30 min) to completely remove any unbound components. The concentration and pH of the PBS used for the different enzymes were the same as for the offline inhibition tests.
(§2) Finally, the unbound component solutions of the experimental and control groups were analyzed by HPLC. […] Binding degree = (1 − P2/P1) × 100%(2)
(§3) HPLC condition: An Agilent 1260 high-performance liquid chromatography system (Agilent Technologies, Santa Clara, CA, USA), equipped with a quaternary pump system, an auto-sampler, a column oven, and a diode array detector, was employed in the current experiment. The sample was separated on an Agilent Poroshell 120 EC-C18 column (100 mm × 4.6 mm, 2.7 μm). The column temperature was set at 30 °C. The mobile phase was 0.1% aqueous formic acid (A) and acetonitrile (B), with a gradient elution procedure of 5% B (0 min), 5% B (3 min), 20% B (23 min), 24% B (28 min), 60% B (32 min), and 100% B (38 min). The flow rate was 0.6 mL/min. The detection wavelength was set at 290 nm, and the injection volume was 5.0 µL.

α-GLU [2] = assay: UF-HPLC screening, binding degree with α-GLU; conditions: PCR extraction 5 mg/mL, 6 U/mL α-GLU, 37 °C 60 min, active vs inactive enzyme peak area
Procedure: as §1, §2, §3

TYR [3] = assay: UF-HPLC screening, binding degree with TYR; conditions: PCR extraction 5 mg/mL, 200 U/mL TYR, 37 °C 60 min, active vs inactive enzyme peak area
Procedure: as §1, §2, §3

xanthine oxidase (XOD) = xanthine oxidase (XOD) (Bos taurus, UniProt P80457); assay: Xanthine oxidase (XOD) inhibition test, offline 96-well microplate
Procedure: In the XOD inhibition assay, each well contained 30 μL of the PCR sample, 30 μL of XOD (0.05 U/mL, dissolved in 200 mM of phosphate buffer, pH 8.5), and 15 μL of NBT (2 mg/mL, dissolved in 200 mM of phosphate buffer, pH 8.5). […] The reaction was stopped by adding 15 µL of SDS (10%). The reaction solution was tested at 560 nm.

tyrosinase (TYR) = molecular target: T2, tyrosinase (TYR) (Agaricus bisporus, UniProt C7FF04); assay: Tyrosinase (TYR) inhibition test, offline 96-well microplate; assay type: biochemical
T2 construct: purchased Sigma-Aldrich (Shanghai, China)
Procedure: The reaction was incubated at 25 °C for 50 min. […] Inhibition (%) = [(Abscontrol − Abssample)/Abscontrol] × 100%(1)

α-GLU [4] = assay: Kinetic analysis (Lineweaver–Burk) on α-GLU; assay type: biochemical; conditions: Lineweaver–Burk plot, ρNPG 0.8~5.0 mM, α-GLU 0.15 U/mL
Procedure: (§4) Subsequently, kinetic analysis was conducted using Lineweaver–Burk plots to investigate the inhibition modes on enzymes caused by methylgallate and polydatin. Competitive, noncompetitive, and mixed inhibitions are three common modes in enzyme kinetic analysis. […] All of the straight lines almost intersect on the Y axis at a certain point. […] All of the straight lines almost intersect on the X axis at a certain point. […] All of the straight lines usually intersect in the quadrants at one point.
(§5) In this work, Lineweaver–Burk was used to investigate the inhibition type of methylgallate and polydatin on enzymes. For TYR, the concentration of the enzyme was kept constant at 200 U/mL, and various concentrations of L-tyrosine (1.0~5.0 mM) were prepared. Various concentrations of methylgallate (0.0~1.3 mM) and polydatin (0.0~0.4 mM) were also provided. For XOD, the concentration of the enzyme was kept constant at 0.05 U/mL, and various concentrations of xanthin (0.06~0.50 mM) were prepared. Various concentrations of polydatin (0.0~0.5 mM) were also provided. For α-GLU, the concentration of the enzyme was kept constant at 0.15 U/mL, and various concentrations of ρNPG (0.8~5.0 mM) were prepared. Various concentrations of polydatin (0.0~3.6 mM) were also provided. GraphPad Prism 5.0 software (USA) was used for the calculation.

TYR [5] = assay: Kinetic analysis (Lineweaver–Burk) on TYR; assay type: biochemical; conditions: Lineweaver–Burk plot, L-tyrosine 1.0~5.0 mM, TYR 200 U/mL
Procedure: as §4, §5

XOD [6] = molecular target: T1, XOD; assay: Kinetic analysis (Lineweaver–Burk) on XOD; assay type: biochemical; conditions: Lineweaver–Burk plot, xanthin 0.06~0.50 mM, XOD 0.05 U/mL
Procedure: as §4, §5

T1 sequence (P80457 whole entry): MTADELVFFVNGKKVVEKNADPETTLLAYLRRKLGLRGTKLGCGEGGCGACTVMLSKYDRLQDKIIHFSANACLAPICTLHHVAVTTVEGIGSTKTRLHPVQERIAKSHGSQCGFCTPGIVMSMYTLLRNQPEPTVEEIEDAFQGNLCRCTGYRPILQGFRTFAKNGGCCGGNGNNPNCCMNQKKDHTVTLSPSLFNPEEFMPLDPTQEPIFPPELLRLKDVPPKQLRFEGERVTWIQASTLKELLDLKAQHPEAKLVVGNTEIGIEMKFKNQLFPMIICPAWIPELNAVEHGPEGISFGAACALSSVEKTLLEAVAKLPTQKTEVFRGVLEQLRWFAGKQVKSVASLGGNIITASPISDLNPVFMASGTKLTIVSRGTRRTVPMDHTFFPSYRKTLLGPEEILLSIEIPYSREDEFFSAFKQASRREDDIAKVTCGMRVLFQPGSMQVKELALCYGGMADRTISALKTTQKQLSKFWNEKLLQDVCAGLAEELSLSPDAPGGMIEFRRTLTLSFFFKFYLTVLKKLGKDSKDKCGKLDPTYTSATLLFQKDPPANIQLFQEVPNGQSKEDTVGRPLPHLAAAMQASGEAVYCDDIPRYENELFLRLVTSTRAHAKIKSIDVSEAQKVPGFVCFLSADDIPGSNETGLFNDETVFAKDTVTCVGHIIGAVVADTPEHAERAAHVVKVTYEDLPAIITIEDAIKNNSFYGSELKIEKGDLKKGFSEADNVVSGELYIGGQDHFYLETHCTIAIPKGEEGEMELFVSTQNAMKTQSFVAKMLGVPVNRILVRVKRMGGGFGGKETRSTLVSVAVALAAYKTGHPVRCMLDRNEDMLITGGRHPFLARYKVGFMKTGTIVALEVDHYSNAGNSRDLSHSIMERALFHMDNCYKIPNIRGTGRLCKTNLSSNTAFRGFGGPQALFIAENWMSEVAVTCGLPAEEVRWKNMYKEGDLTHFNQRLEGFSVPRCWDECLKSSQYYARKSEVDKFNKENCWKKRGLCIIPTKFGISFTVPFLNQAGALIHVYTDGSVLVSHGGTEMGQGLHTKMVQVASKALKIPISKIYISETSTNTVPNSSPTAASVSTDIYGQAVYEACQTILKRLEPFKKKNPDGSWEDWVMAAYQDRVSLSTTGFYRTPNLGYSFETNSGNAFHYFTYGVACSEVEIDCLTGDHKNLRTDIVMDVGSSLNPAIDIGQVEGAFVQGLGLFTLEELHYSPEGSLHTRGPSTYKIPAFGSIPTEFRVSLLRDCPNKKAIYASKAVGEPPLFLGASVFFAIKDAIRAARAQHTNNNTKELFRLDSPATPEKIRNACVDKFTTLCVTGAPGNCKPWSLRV
T2 sequence (C7FF04 1-392 limits assumed): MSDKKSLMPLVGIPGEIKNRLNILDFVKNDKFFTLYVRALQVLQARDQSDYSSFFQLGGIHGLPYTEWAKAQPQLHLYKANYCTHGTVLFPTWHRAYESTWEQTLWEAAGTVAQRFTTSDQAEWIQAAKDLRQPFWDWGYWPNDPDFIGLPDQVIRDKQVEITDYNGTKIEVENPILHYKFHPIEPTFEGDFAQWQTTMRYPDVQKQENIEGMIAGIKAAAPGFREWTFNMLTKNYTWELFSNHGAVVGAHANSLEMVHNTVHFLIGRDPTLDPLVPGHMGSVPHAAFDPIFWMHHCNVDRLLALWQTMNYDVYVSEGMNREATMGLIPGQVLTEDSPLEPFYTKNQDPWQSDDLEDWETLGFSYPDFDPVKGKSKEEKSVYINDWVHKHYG
Sequence of xanthine oxidase (XOD) (P80457 whole entry): as the sequence (P80457 whole entry) above

Row | Binding degree: XOD (XOD [1]) [%] | Binding degree: α-GLU (α-GLU [2]) [%] | Binding degree: TYR (TYR [3]) [%] | SMILES | further results
1 | 49.77 | 11.90 | 57.00 | O=C(O)CC(=O)OCC1OC(Oc2cc(O)cc(C=Cc3ccc(O)cc3)c2)C(O)C(O)C1O (stereo not shown) [Malonyl glucoside resveratrol (6), Malonyl glucoside resveratrol] | –
2 | – | – | – | OC[C@H]1O[C@@H](Oc2cc(O)cc(/C=C/c3ccc(O)cc3)c2)[C@H](O)[C@@H](O)[C@@H]1O [Polydatin (5), Polydatin] | IC50 (xanthine oxidase (XOD)): 2130 µM; IC50 (tyrosinase (TYR)): 188 µM; inhibition mode on α-GLU (α-GLU [4]): mixed type; inhibition mode on TYR (TYR [5]): mixed type; Binding degree: XOD (XOD [1]; listed as Peak 5): 55.80%; Binding degree: α-GLU (α-GLU [2]; listed as Peak 5): 16.51%; inhibition mode on XOD (XOD [6]): competitive type; Binding degree: TYR (TYR [3]; listed as Peak 5): 80.74%
3 | – | – | – | OC[C@H]1O[C@@H](Oc2cc(O)cc(/C=C/c3ccc(O)cc3)c2)[C@H](O)[C@@H](O)[C@@H]1O [Resveratrol-5-O-D-glucoside (7), Resveratrol-5-O-D-glucoside] | Binding degree: XOD (XOD [1]; listed as Peak 7): 11.65%; Binding degree: α-GLU (α-GLU [2]; listed as Peak 7): 0.00%; Binding degree: TYR (TYR [3]; listed as Peak 7): 70.51%
4 | 30.66 | 14.58 | 71.32 | OC[C@H]1O[C@@H](Oc2ccc(/C=C/c3cc(O)cc(O)c3)cc2)[C@H](O)[C@@H](O)[C@@H]1O [Resveratrol-4′-O-D-glucoside (4), Resveratrol-4′-O-D-glucoside] | –
5 | 50.69 | 0.00 | 77.53 | O=C(OC[C@H]1O[C@@H](OC(=O)c2cc(O)c(O)c(O)c2)[C@H](O)[C@@H](O)[C@@H]1O)c1cc(O)c(O)c(O)c1 [1,6-Di-O-galloyl-D-glucose (2), 1,6-Di-O-galloyl-D-glucose] | –
6 | 0.00 | 0.00 | 57.64 | OC[C@H]1O[C@@H](Oc2ccc(/C=C/c3cc(O)cc(O[C@@H]4O[C@H](CO)[C@@H](O)[C@H](O)[C@H]4O)c3)cc2)[C@H](O)[C@@H](O)[C@@H]1O [Polydatin-4′-O-D-glucoside (3), Polydatin-4′-O-D-glucoside] | –

Row | SMILES | Binding degree: XOD (XOD [1]) [%] | Binding degree: α-GLU (α-GLU [2]) [%] | Binding degree: TYR (TYR [3]) [%] | further results
7 | COC(=O)c1cc(O)c(O)c(O)c1 [Methylgallate (1), Methylgallate] | 0.00 | 0.00 | 36.03 | IC50 (tyrosinase (TYR)): 555 µM; inhibition mode on TYR (TYR [5]): noncompetitive type
